{"source": "patent US8017633B2", "about": "“Roflumilast for the treatment of diabetes mellitus” (Nycomed GmbH, priority 2005, dated 2011)", "key": {"[1]": {"test_system": "C57BLKS db/db mice", "assay": "Daily water intake of db/db mice during once-daily oral treatment", "assay_type": "in vivo, mouse", "conditions": "for Daily water intake on the days of application: 30 mg/kg oral once daily", "method": "(§1) Female C57BLKS db/db mice obtained from M&B A/S (8680 Ry, Denmark) were used in the studies at 10 to 11 weeks of age. Mice were housed 10 per cage and allowed free access to water and standard laboratory diet for rodents (chow 3433, Provimi Kliba SA, 4303 Kaiseraugst, Switzerland).\n(§2) Mice were treated with vehicle, Roflumilast or Roflumilast-N-Oxide, respectively once daily in the morning. Roflumilast or Roflumilast-N-Oxide was suspended in 4% methocel and applied via oral gavage using oral feeding & dosing needles (outer diameter: 1.5 mm, TSE GmbH, 61350 Bad Homburg, Germany). A volume of 10 ml/kg body weight was administered for each dose.\n(§3) The daily intake of food (chow 3433) and water was measured per animal (total daily intake of food divided by the number of animals) before and during the treatment with Roflumilast or Roflumilast-N-Oxide."}, "[2]": {"test_system": "C57BLKS db/db mice", "assay": "Daily food intake of db/db mice during once-daily oral treatment", "assay_type": "in vivo, mouse", "method": "as §1, §2, §3"}, "[3]": {"conditions": "db/db mice, treatment once daily oral"}}}
{"molecule": "O=C(Nc1c(Cl)c[n+]([O-])cc1Cl)c1ccc(OC(F)F)c(OCC2CC2)c1", "note": "[Rof-N-Oxide, 3-cyclopropylmethoxy-4-difluoromethoxy-N-(3,5-dichloro-1-oxido-pyridin-4-yl)benzamide]", "values": [{"measurement": "Daily water intake on the days of application", "setting": "[1]; Day 7", "result": 3.3, "unit": "g per mouse"}, {"measurement": "Daily water intake on the days of application", "setting": "[1]; Day 8", "result": 2.5, "unit": "g per mouse"}, {"measurement": "Effect on increased daily water intake (summary in words)", "setting": "[1]; [3]", "result": "reduced"}, {"measurement": "Daily food intake before the first application", "setting": "[2]; 1 mg/kg group, Day −1, before first application", "result": 6.4, "unit": "g per mouse"}, {"measurement": "Daily food intake before the first application", "setting": "[2]; 1 mg/kg group, Day −2, before first application", "result": 6.4, "unit": "g per mouse"}, {"measurement": "Daily food intake before the first application", "setting": "[2]; 1 mg/kg group, Day −3, before first application", "result": 6.4, "unit": "g per mouse"}, {"measurement": "Daily food intake before the first application", "setting": "[2]; 1 mg/kg group, Day −4, before first application", "result": 5.9, "unit": "g per mouse"}, {"measurement": "Daily food intake before the first application", "setting": "[2]; 1 mg/kg group, Day −5, before first application", "result": 6.0, "unit": "g per mouse"}, {"measurement": "Daily food intake on the days of application", "setting": "[2]; 1 mg/kg oral once daily, Day 1", "result": 5.4, "unit": "g per mouse"}, {"measurement": "Daily food intake on the days of application", "setting": "[2]; 1 mg/kg oral once daily, Day 2", "result": 5.4, "unit": "g per mouse"}, {"measurement": "Daily food intake on the days of application", "setting": "[2]; 1 mg/kg oral once daily, Day 3", "result": 5.8, "unit": "g per mouse"}, {"measurement": "Daily food intake on the days of application", "setting": "[2]; 1 mg/kg oral once daily, Day 4", "result": 5.5, "unit": "g per mouse"}, {"measurement": "Daily food intake on the days of application", "setting": "[2]; 1 mg/kg oral once daily, Day 5", "result": 5.6, "unit": "g per mouse"}, {"measurement": "Daily food intake on the days of application", "setting": "[2]; 1 mg/kg oral once daily, Day 6", "result": 5.8, "unit": "g per mouse"}, {"measurement": "Daily food intake on the days of application", "setting": "[2]; 1 mg/kg oral once daily, Day 7", "result": 5.4, "unit": "g per mouse"}, {"measurement": "Daily food intake on the days of application", "setting": "[2]; 1 mg/kg oral once daily, Day 8", "result": 5.5, "unit": "g per mouse"}, {"measurement": "Daily food intake before the first application", "setting": "[2]; 3 mg/kg group, Day −1, before first application", "result": 6.1, "unit": "g per mouse"}, {"measurement": "Daily food intake before the first application", "setting": "[2]; 3 mg/kg group, Day −2, before first application", "result": 6.1, "unit": "g per mouse"}, {"measurement": "Daily food intake before the first application", "setting": "[2]; 3 mg/kg group, Day −3, before first application", "result": 6.4, "unit": "g per mouse"}, {"measurement": "Daily food intake before the first application", "setting": "[2]; 3 mg/kg group, Day −4, before first application", "result": 6.4, "unit": "g per mouse"}, {"measurement": "Daily food intake before the first application", "setting": "[2]; 3 mg/kg group, Day −5, before first application", "result": 5.5, "unit": "g per mouse"}, {"measurement": "Daily food intake on the days of application", "setting": "[2]; 3 mg/kg oral once daily, Day 1", "result": 4.9, "unit": "g per mouse"}, {"measurement": "Daily food intake on the days of application", "setting": "[2]; 3 mg/kg oral once daily, Day 2", "result": 4.9, "unit": "g per mouse"}, {"measurement": "Daily food intake on the days of application", "setting": "[2]; 3 mg/kg oral once daily, Day 3", "result": 4.5, "unit": "g per mouse"}, {"measurement": "Daily food intake on the days of application", "setting": "[2]; 3 mg/kg oral once daily, Day 4", "result": 4.5, "unit": "g per mouse"}, {"measurement": "Daily food intake on the days of application", "setting": "[2]; 3 mg/kg oral once daily, Day 5", "result": 4.6, "unit": "g per mouse"}, {"measurement": "Daily food intake on the days of application", "setting": "[2]; 3 mg/kg oral once daily, Day 6", "result": 4.9, "unit": "g per mouse"}, {"measurement": "Daily food intake on the days of application", "setting": "[2]; 3 mg/kg oral once daily, Day 7", "result": 4.3, "unit": "g per mouse"}, {"measurement": "Daily food intake on the days of application", "setting": "[2]; 3 mg/kg oral once daily, Day 8", "result": 4.2, "unit": "g per mouse"}, {"measurement": "Daily food intake before the first application", "setting": "[2]; 10 mg/kg group, Day −1, before first application", "result": 6.5, "unit": "g per mouse"}, {"measurement": "Daily food intake before the first application", "setting": "[2]; 10 mg/kg group, Day −2, before first application", "result": 6.4, "unit": "g per mouse"}, {"measurement": "Daily food intake before the first application", "setting": "[2]; 10 mg/kg group, Day −3, before first application", "result": 6.4, "unit": "g per mouse"}, {"measurement": "Daily food intake before the first application", "setting": "[2]; 10 mg/kg group, Day −4, before first application", "result": 6.2, "unit": "g per mouse"}, {"measurement": "Daily food intake before the first application", "setting": "[2]; 10 mg/kg group, Day −5, before first application", "result": 6.0, "unit": "g per mouse"}, {"measurement": "Daily food intake on the days of application", "setting": "[2]; 10 mg/kg oral once daily, Day 1", "result": 2.9, "unit": "g per mouse"}, {"measurement": "Daily food intake on the days of application", "setting": "[2]; 10 mg/kg oral once daily, Day 2", "result": 3.3, "unit": "g per mouse"}, {"measurement": "Daily food intake on the days of application", "setting": "[2]; 10 mg/kg oral once daily, Day 3", "result": 3.5, "unit": "g per mouse"}, {"measurement": "Daily food intake on the days of application", "setting": "[2]; 10 mg/kg oral once daily, Day 4", "result": 2.9, "unit": "g per mouse"}, {"measurement": "Daily food intake on the days of application", "setting": "[2]; 10 mg/kg oral once daily, Day 5", "result": 3.0, "unit": "g per mouse"}, {"measurement": "Daily food intake on the days of application", "setting": "[2]; 10 mg/kg oral once daily, Day 6", "result": 3.1, "unit": "g per mouse"}, {"measurement": "Daily food intake on the days of application", "setting": "[2]; 10 mg/kg oral once daily, Day 7", "result": 2.6, "unit": "g per mouse"}, {"measurement": "Daily food intake on the days of application", "setting": "[2]; 10 mg/kg oral once daily, Day 8", "result": 3.8, "unit": "g per mouse"}, {"measurement": "Daily food intake before the first application", "setting": "[2]; 30 mg/kg group, Day −1, before first application", "result": 6.3, "unit": "g per mouse"}, {"measurement": "Daily food intake before the first application", "setting": "[2]; 30 mg/kg group, Day −2, before first application", "result": 6.2, "unit": "g per mouse"}, {"measurement": "Daily food intake before the first application", "setting": "[2]; 30 mg/kg group, Day −3, before first application", "result": 6.5, "unit": "g per mouse"}, {"measurement": "Daily food intake before the first application", "setting": "[2]; 30 mg/kg group, Day −4, before first application", "result": 6.4, "unit": "g per mouse"}, {"measurement": "Daily food intake before the first application", "setting": "[2]; 30 mg/kg group, Day −5, before first application", "result": 5.8, "unit": "g per mouse"}, {"measurement": "Daily food intake on the days of application", "setting": "[2]; 30 mg/kg oral once daily, Day 1", "result": 1.4, "unit": "g per mouse"}, {"measurement": "Daily food intake on the days of application", "setting": "[2]; 30 mg/kg oral once daily, Day 2", "result": 0.9, "unit": "g per mouse"}, {"measurement": "Daily food intake on the days of application", "setting": "[2]; 30 mg/kg oral once daily, Day 3", "result": 1.2, "unit": "g per mouse"}, {"measurement": "Daily food intake on the days of application", "setting": "[2]; 30 mg/kg oral once daily, Day 4", "result": 0.8, "unit": "g per mouse"}, {"measurement": "Daily food intake on the days of application", "setting": "[2]; 30 mg/kg oral once daily, Day 5", "result": 0.9, "unit": "g per mouse"}, {"measurement": "Daily food intake on the days of application", "setting": "[2]; 30 mg/kg oral once daily, Day 6", "result": 1.1, "unit": "g per mouse"}, {"measurement": "Daily food intake on the days of application", "setting": "[2]; 30 mg/kg oral once daily, Day 7", "result": 0.7, "unit": "g per mouse"}, {"measurement": "Daily food intake on the days of application", "setting": "[2]; 30 mg/kg oral once daily, Day 8", "result": 0.6, "unit": "g per mouse"}, {"measurement": "Effect on daily food intake (summary in words)", "setting": "[2]; [3]", "result": "reduce in a dose-dependent manner"}]}
